From patent publication US20160355530A1, “HEPATITIS C INHIBITORS AND USES THEREOF” (AbbVie Inc., priority 2010, published 2016)
Like-named read-outs stand apart in the source and are kept apart here.

What was measured:
[1] = system: chimeric replicon with 2a-J6CF-derived NS5B; experiment: microbe, parasite or virus in culture; assay type: cell-based, HCV genotype 2a; settings: Hepatitis C virus, read-out: 2a chimera 5% FBS EC50
[2] = system: chimeric replicon with genotype 4a NS5B; experiment: microbe, parasite or virus in culture; assay type: cell-based, HCV genotype 4a; settings: Hepatitis C virus, read-out: 4a chimera 5% FBS EC50
[3] = system: chimeric replicon with genotype 3a NS5B; experiment: microbe, parasite or virus in culture; assay type: cell-based, HCV genotype 3a; settings: Hepatitis C virus, read-out: 3a chimera 5% FBS EC50
[4] = molecular target: T1, HCV NS5B polymerase 1b BK strain (Hepatitis C virus genotype 1b, UniProt P26663); experiment: HCV NS5B polymerase enzymatic inhibition assay, strain 1b BK; assay type: biochemical; settings: enzyme, strain 1b BK; read-out: HCV Polymerase Strain 1b BK IC50
T1 construct: six-histidine tag; made in house; host or cells: E. coli
Procedure, shortened: (§1)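 Recombinant NS5B (residues 1–570, His-tagged, E. coli-expressed) copied 5 nM of a 2.1 kb HCV 1b negative-strand 3′-end RNA template with 20 μM CTP, 20 μM ATP and 0.284 μM [3H]UTP for 3 h at 30 °C. Spermine-precipitated RNA was filter-captured and counted, and IC50 was fitted by nonlinear regression.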

[5] = system: HCV 1a-H77-C316Y transient subgenomic replicon in Huh-7 derived cell line; experiment: microbe, parasite or virus in culture; assay type: cell-based, HCV genotype 1a; settings: for EC50: Hepatitis C virus, Huh-7, read-out: Transient Replicon 1a H77-C316Y 5% FBS EC50; for Transient Replicon Fold Resistance C316Y/1a: ratio of transient replicon EC50s, C316Y / 1a H77
Procedure, shortened: (§2)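 Transient format: T7-transcribed replicon RNA lacking Neo, electroporated into Huh-7-derived cells (5×10^3/well), input RNA checked by luciferase at 4 h. Three-fold compound dilution series, 0.5% DMSO, 4 days at 37° C; EC50 from luciferase signal in lysed cells.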

[6] = system: HCV 1a-H77 transient subgenomic replicon in Huh-7 derived cell line; experiment: microbe, parasite or virus in culture; assay type: cell-based, HCV genotype 1a; settings: Hepatitis C virus, Huh-7; transient replicon, 5% FBS; read-out: Transient Replicon 1a H77 5% FBS EC50
Procedure, shortened: as §2

[7] = system: HCV 1a-H77 subgenomic replicon; experiment: microbe, parasite or virus in culture; assay type: cell-based, HCV genotype 1a; settings: Hepatitis C virus, stable replicon
[8] = system: HCV 1b-BB7 subgenomic replicon; experiment: microbe, parasite or virus in culture; assay type: cell-based, HCV genotype 1b; settings: Hepatitis C virus, stable replicon
[9] = system: chimeric replicon with genotype 2b NS5B; experiment: microbe, parasite or virus in culture; assay type: cell-based, HCV genotype 2b; settings: Hepatitis C virus, read-out: 2b chimera 5% FBS EC50
[10] = molecular target: T2, HCV NS5B polymerase 1a-H77-C316Y (Hepatitis C virus genotype 1a, UniProt P27958, C2736Y); experiment: biochemical; set-up: species or system HCV genotype 1a
T2 construct: six-histidine tag; made in house; host or cells: E. coli
Procedure, shortened: as §1

[11] = molecular target: T3, HCV NS5B polymerase 1a-H77 (Hepatitis C virus genotype 1a, UniProt P27958); experiment: biochemical; set-up: species or system HCV genotype 1a
T3 construct: six-histidine tag; made in house; host or cells: E. coli
Procedure, shortened: as §1

[12] = system: HCV NS5B polymerase 1a-H77-C316Y; experiment: biochemical; set-up: species or system HCV genotype 1a; settings: ratio of enzyme IC50s, 1a H77-C316Y / 1a H77
Procedure, shortened: as §1

[13] = 5% FBS, absence of human plasma, read-out: Stable Replicon 1a H77 5% FBS EC50
[14] = strain 1a H77, 5% FBS + 40% human plasma, read-out: 1a H77 5% FBS + 40% Human Plasma EC50
[15] = strain 1a H77, 5% FBS, no human plasma, read-out: 1a H77 5% FBS EC50
[16] = strain 1a H77, 5% FBS, read-out: 1a H77 5% FBS EC50
[17] = strain 1b BB7, 5% FBS + 40% human plasma, read-out: 1b BB7 5% FBS + 40% Human Plasma EC50
[18] = strain 1b BB7, 5% FBS, no human plasma, read-out: 1b BB7 5% FBS EC50
[19] = strain 1b BB7, 5% FBS, read-out: 1b BB7 5% FBS EC50
[20] = enzyme, strain 1a H77, read-out: HCV Polymerase Strain 1a H77 IC50

T2 sequence (P27958 2421-2990 C2736Y): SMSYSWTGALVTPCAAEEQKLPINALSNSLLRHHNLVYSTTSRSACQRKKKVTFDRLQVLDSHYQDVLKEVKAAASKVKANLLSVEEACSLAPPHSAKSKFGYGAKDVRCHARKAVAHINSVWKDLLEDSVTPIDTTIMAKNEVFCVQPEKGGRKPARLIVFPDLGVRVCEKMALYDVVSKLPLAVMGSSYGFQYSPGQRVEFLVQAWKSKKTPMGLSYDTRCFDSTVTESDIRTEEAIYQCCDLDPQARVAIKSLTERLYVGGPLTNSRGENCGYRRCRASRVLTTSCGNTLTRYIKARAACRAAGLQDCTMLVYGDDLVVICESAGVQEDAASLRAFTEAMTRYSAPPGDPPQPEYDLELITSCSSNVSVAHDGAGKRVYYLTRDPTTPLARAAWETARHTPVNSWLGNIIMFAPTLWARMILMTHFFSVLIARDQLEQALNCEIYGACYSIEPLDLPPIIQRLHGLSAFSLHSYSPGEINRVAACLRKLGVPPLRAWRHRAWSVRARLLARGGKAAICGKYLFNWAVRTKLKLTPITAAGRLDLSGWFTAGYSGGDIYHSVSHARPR
T1 sequence (P26663 2420-2989): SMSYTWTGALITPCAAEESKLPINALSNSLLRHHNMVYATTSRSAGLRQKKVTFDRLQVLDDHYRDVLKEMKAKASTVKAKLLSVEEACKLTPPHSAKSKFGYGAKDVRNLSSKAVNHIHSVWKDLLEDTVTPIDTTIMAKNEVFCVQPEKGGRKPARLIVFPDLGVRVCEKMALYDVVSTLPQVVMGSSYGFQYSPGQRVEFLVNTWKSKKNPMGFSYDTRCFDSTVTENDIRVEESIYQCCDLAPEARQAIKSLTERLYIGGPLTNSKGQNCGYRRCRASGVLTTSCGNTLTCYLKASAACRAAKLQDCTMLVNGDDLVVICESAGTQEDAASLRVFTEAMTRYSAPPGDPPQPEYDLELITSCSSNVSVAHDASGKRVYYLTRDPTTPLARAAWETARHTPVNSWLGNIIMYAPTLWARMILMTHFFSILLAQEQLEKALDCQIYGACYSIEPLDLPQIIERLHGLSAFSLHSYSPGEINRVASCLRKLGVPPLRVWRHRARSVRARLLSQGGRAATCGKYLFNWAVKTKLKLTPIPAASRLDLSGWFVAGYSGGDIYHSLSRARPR
T3 sequence (P27958 2421-2990): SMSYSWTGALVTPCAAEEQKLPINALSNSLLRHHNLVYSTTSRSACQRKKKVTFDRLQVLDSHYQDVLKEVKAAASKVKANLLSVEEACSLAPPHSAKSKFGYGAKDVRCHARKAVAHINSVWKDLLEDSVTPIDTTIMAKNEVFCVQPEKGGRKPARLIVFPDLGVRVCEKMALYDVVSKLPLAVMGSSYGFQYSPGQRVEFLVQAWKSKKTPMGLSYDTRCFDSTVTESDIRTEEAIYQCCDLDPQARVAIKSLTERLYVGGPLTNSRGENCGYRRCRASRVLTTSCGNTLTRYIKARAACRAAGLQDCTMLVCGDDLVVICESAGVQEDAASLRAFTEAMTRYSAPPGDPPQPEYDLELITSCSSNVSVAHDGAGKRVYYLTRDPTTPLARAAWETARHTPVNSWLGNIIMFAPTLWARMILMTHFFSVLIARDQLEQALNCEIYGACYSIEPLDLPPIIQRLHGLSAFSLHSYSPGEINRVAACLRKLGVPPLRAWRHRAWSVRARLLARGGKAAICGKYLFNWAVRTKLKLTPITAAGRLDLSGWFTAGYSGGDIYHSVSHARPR

Compound | EC50 [1] | EC50 [2] | EC50 [3] | IC50 [4] | EC50 [5] | Transient Replicon Fold Resistance C316Y/1a [5] | EC50 [6] | EC50 [7, 13] | EC50 [7, 14] | EC50 [7, 15] | EC50 [7, 16] | EC50 [8, 17] | EC50 [8, 18] | EC50 [8, 19] | EC50 [9] | IC50 [10] | IC50 [11] | C316Y/1a Fold Resistance [12] | IC50 [11, 20]
CS(=O)(=O)N(CCCS(N)(=O)=O)c1cc2oc(-c3ccc(F)cc3)c(C3=NOCN3)c2cc1C1CC1 [Example 15, 3-{[5-cyclopropyl-3-(4,5-dihydro-1,2,4-oxadiazol-3-yl)-2-(4-fluorophenyl)-1-benzofuran-6-yl](methylsulfonyl)amino}propane-1-sulfonamide] | 128 nM | 142 nM | 12 nM | 11 nM | 166 nM | 20 fold | 8.2 nM | 6.5 nM | 1770 nM | 6.5 nM | 6.5 nM | 818 nM | 10 nM | 10 nM | 105 nM | 31 nM | 3 nM | 10 fold | 
CC1NC(c2c(-c3ccc(F)cc3)oc3cc(N(CCS(C)(=O)=O)S(C)(=O)=O)c(C4CC4)cc23)=NO1 (stereo not drawn) [Example 12, N-[5-cyclopropyl-2-(4-fluorophenyl)-3-(5-methyl-4,5-dihydro-1,2,4-oxadiazol-3-yl)-1-benzofuran-6-yl]-N-[2-(methylsulfonyl)ethyl]methanesulfonamide] | 285 nM | 73.3 nM | 26 nM | 17 nM | 1220 nM | 16 fold | 78 nM | 42.6 nM | 50 nM | 42.6 nM | 42.6 nM | 82 nM | 11 nM | 11 nM | 221 nM | 43 nM |  | 8 fold | 5.5 nM
CS(=O)(=O)N(Cc1cnc(-c2ccc3nc[nH]c3c2)s1)c1ccc2c(-c3ncc[nH]3)c(-c3ccccc3)oc2c1 [Example 3, N-{[2-(1H-benzimidazol-6-yl)-1,3-thiazol-5-yl]methyl}-N-[3-(1H-imidazol-2-yl)-2-phenyl-1-benzofuran-6-yl]methanesulfonamide] | 29.3 nM | 135 nM | 2.8 nM | 10 nM | 109 nM | 5 fold | 21.3 nM | 48 nM | 7930 nM | 48 nM | 48 nM | 760 nM | 5 nM | 5 nM | 81.8 nM | 11 nM |  | 4 fold | 3 nM
CC1NC(c2c(-c3ccc(F)cc3)oc3cc(N(CC[S+](C)[O-])S(C)(=O)=O)c(C4CC4)cc23)=NO1 (stereo not drawn) [Example 13, N-[5-cyclopropyl-2-(4-fluorophenyl)-3-(5-methyl-4,5-dihydro-1,2,4-oxadiazol-3-yl)-1-benzofuran-6-yl]-N-[2-(methylsulfinyl)ethyl]methanesulfonamide] | 384 nM | 159 nM | 42 nM | 26 nM | 134 nM | 12 fold | 11.1 nM | 14.8 nM | 163 nM | 14.8 nM | 14.8 nM | 146 nM | 15.9 nM | 15.9 nM | 307 nM | 115 nM |  | 16 fold | 7.4 nM
CS(=O)(=O)Nc1cc2oc(-c3ccc(F)cc3)c(C3=NOCN3)c2cc1C1CC1 [Example 173, N-[5-cyclopropyl-3-(4,5-dihydro-1,2,4-oxadiazol-3-yl)-2-(4-fluorophenyl)-1-benzofuran-6-yl]methanesulfonamide] | 1000 nM | > 1000 nM | 146 nM | 86 nM | 10000 nM | 10 fold | 1000 nM | 809 nM | 9720 nM | 809 nM | 809 nM | 5060 nM | 301 nM | 301 nM | 1000 nM | 1400 nM |  | 198 fold | 7.1 nM
CC1NC(c2c(-c3ccc(F)cc3)oc3cc(N(CCCCO)S(C)(=O)=O)c(C4CC4)cc23)=NO1 (stereo not drawn) [Example 11, N-[5-cyclopropyl-2-(4-fluorophenyl)-3-(5-methyl-4,5-dihydro-1,2,4-oxadiazol-3-yl)-1-benzofuran-6-yl]-N-(4-hydroxybutyl)methanesulfonamide] | 85 nM | 24.4 nM | 16.6 nM | 20 nM | 34.4 nM | 11 fold | 3 nM | 8 nM | 100 nM | 8 nM | 8 nM | 199 nM | 10.3 nM | 10.3 nM | 98.5 nM | 30 nM |  | 5 fold | 5.9 nM
CS(=O)(=O)N(CCCC#N)c1cc2oc(-c3ccc(F)cc3)c(-c3ncc[nH]3)c2cc1C1CC1 [Example 49, N-(3-cyanopropyl)-N-[5-cyclopropyl-2-(4-fluorophenyl)-3-(1H-imidazol-2-yl)-1-benzofuran-6-yl]methanesulfonamide] | 22.4 nM | 33.9 nM | 3.7 nM | 17 nM | 76.8 nM | 35 fold | 2.2 nM | 3.7 nM | 53.9 nM | 3.7 nM | 3.7 nM | 28.1 nM | 3 nM | 3 nM | 41.5 nM | 52 nM |  | 10 fold | 5 nM
